Test results reported in US7081472B2, “Substituted bis-indole derivatives useful as contrast agents, pharmaceutical compositions containing them and intermediates for producing them” (K. U. Leuven Research & Development, priority 2000, dated 2006).

Assays:
[1] = MR angiography after intravenous injection in a rabbit; type: in vivo; conditions: i.v. 0.1 mmole per kg
From the text: For the purpose of a comparison with a known contrast agent, MR angiographic images of a rabbit were taken (shown in FIG. 5) after intravenous injection of: • a commercial MRI contrast agent (Gd-DTPA commercially available under the tradename Magnevisto® from Schering A G, Berlin, Germany) at a concentration of 0.1 mmole per kg bodyweight (A-C), and • the complex of example 8 at a concentration of 0.05 mmole per kg bodyweight (A′-C′).

[2] = 0.25 mmolar solution, yellow-orange color; cited from earlier work
[3] = animals, 1 mmole of the gadolinium complex per kg body weight; cited from earlier work

In the case of `O=C([O-])CN(CCN(CC(=O)[O-])CC(=O)O)CCN(CC(=O)[O-])CC(=O)O.[Gd+3]` [Gd-DTPA], the “contrast enhancement of abdominal aorta, first pass” value ([1]; immediately after injection) is reported as “moderately enhanced” and the “contrast enhancement of abdominal aorta” value ([1]; one minute after contrast) is reported as “faintly enhanced”.

In the case of “gadolinium complex of the bis-diethylenetriaminepentaacetic acid pamoic acid derivative obtained from 3-hydroxy-2-naphtalene methyl carboxylate”, the “absorbance at 400 nm” value [2] is given as 0.75 and the “side effects after intravenous bolus injection” value [3] is given as “significant side effects (e.g. myocarditis)”.
